Test [1] relates to S. pneumoniae TIGR4ΔfoID. Put plainly: Planktonic growth of S. pneumoniae foID deletion mutant. It counts as cell-based, Streptococcus pneumoniae. To be noted: 0.25 μg/ml carolacton. As to the method: FIG. 4. Carolacton effects on S. pneumoniae TIGR4 and foID deletion, complementation and fhs deletion mutants. (A) Growth inhibition of planktonic cultures of S. pneumoniae TIGR4 wild type, ΔfoID deletion mutant and controls in THBY. Carolacton (caro) (0.25 μg/ml) was added at an optical density of 600 nm (OD600) of 0.15. (B) Planktonic growth of the S. pneumoniae TIGR4 wild type and the TIGR4Δfhs mutant in THBY. Cultures were treated with 0.25 μg/ml carolacton (OD600 0.15).
The Streptococcus mutans and Streptococcus pneumoniae strains used herein are UA159 and TIGR4, respectively. S. pneumoniae TIGR4 was routinely grown on Columbia blood agar plates (BD Biosciences) as described previously (Donner et. al, 2016). Streptococci were grown in Todd-Hewitt-Broth +1% (w/v) yeast extract (THBY, BD Biosciences)) at 37° C. and 5% CO2. The E. coli ToIC strain used in carolacton-resistant mutant development is an antibiotic-sensitive E. coli strain without its outer membrane channel protein ToIC. E. coli DH1OB or DH5α strain was used for gene cloning and E. coli BL21 (DE3) was used for protein expression. The protein expression plasmid pHis-TEV (Liu et al., 2009) was used for cloning and expression of all different foID gene orthologues studied herein.

For test [2], the target named is T1, spFoID (Streptococcus pneumoniae serotype 4, UniProt Q97RI9).
T1 construct: made in house; host or cells: E. coli BL21 (DE3)
Put plainly: Surface plasmon resonance assay. It is filed as binding, S. pneumoniae. Particulars: read-out: KD (SPR). Here is the method: All surface plasmon resonance (SPR) experiments described in this study were performed on a Biacore X100 system. Different FoIDs with or without His-tag were coupled on CM5 sensor chips (GE Healthcare) by the amine coupling method using a kit from GE Healthcare Life Sciences (Freiburg, Germany). A pH scouting process was performed before protein immobilization to test the most appropriate buffer and the protein concentration for protein coupling. Finally, 20 μg/mL of ecFoID in 10 mM maleate buffer (pH 6.8), 30 μg/mL of ecFoID Q98H in 10 mM maleate buffer (pH 6.3), 40 μg/mL of ecFoID K54N in 10 mM maleate buffer (pH 5.8), 20 μg/mL of spFoID in 10 mM maleate buffer (pH 6.0) and 15 μg/mL of MTHFD2 (His-tag cleaved) in 10 mM maleate buffer (pH 6.8) were used for coupling. In the protein immobilization procedure, the contact time was calculated based on the pH scouting results to achieve -3000-5000 relative resonance units (RU). The buffer used in the SPR assays was 1×HBS-P buffer (10 mM HEPES pH 7.4, 150 mM NaCl, 0.05% Tween 20). The 1 mM stock solution of carolacton was prepared in 1×HBS-P buffer and diluted to different concentration ranges by two-fold serial dilution. In the SPR assay, the association time was 180 s and the dissociation time was 600 s. Data analysis was performed using the Biacore evaluation software. […]
In general terms: SPR reads the build-up and loss of mass on a sensor chip optically.

pKd: −log10 of the molar value.

T1 sequence (Q97RI9 whole entry): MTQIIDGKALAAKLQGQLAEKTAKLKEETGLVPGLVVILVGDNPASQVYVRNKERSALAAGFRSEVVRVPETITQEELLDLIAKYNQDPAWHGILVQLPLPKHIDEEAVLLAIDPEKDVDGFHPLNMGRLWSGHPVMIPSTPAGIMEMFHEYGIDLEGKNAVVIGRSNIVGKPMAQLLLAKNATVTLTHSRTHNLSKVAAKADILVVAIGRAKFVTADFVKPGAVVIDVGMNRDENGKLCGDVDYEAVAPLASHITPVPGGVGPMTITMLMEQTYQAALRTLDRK

As a reminder, the pKd is the Kd on a negative log10 scale, so that one unit is a factor of ten. Consider `CO[C@H](CC(=O)O)[C@@H](C)C(=O)[C@H](C)/C=C(\C)[C@H]1OC(=O)[C@H](O)[C@H](O)/C=C/[C@H](C)CCC[C@@H]1C` [Carolacton, carolacton], for which the “sensitivity of planktonic growth to carolacton” value in test [1] is “carolacton resistant”. The pKd in test [2] was 7.57.

Source of the values: patent US11357752B2, “Carolacton and derivatives thereof for use in the treatment of cell proliferation disorders” (Helmholtz-Zentrum für Infektionsforschung GmbH, priority 2017, dated 2022).
